Where two headings read alike, the source gives them in different places.
Experiments:
[1] = Stability of inactivators at 37°C (spectrophotometric half life); assay type: physicochemical
Procedure: Inactivators (10mM in DMSO) were diluted to 0.1mM in prewarmed degassed buffer I (1mM EDTA, 50mM Tris pH 8.3) or PBS (pH 7-7.2). […] Samples were immediately transferred to a CARY13 spectrophotometer (cuvette block held at 37°C) and scanned at an appropriate wavelength (according to the spectral properties of the compound) at 3-10 minute intervals for up to 80 hours. The results were expressed as percentage absorbance change versus time and T1/2 values (half life) extrapolated from this.

ATase [2] = target: T1, ATase (Homo sapiens, UniProt P16455); assay: In vitro ATase inactivation assay with purified recombinant human ATase; assay type: biochemical; set-up: made in house; conditions: for ability to inactivate recombinant human ATase: up to the highest concentration used, in words
T1 sequence (P16455 1-207): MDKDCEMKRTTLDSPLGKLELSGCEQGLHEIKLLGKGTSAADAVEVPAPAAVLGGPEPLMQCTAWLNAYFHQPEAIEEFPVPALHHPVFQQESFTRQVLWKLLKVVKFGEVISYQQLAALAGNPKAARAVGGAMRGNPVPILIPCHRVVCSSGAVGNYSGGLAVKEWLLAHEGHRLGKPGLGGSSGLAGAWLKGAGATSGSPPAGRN
Procedure: The cDNA cloning and overexpression of the human ATase has been reported previously^23. Purification of the recombinant proteins was achieved either by affinity chromatography through a DNA-cellulose column as described by Wilkinson et al.,^25, 26, or by DEAE-cellulose ion-exchange chromatography. For the latter, the ATase protein was partially purified by ammonium sulphate precipitation (30 - 60%) and dialysed against 10 mM Tris-HCl pH 7.5, 1 mM DTT, 2 mM EDTA, 10% glycerol, before loading on a DEAF-cellulose column. The ATase was then eluted with a 0-0.1 M NaCl gradient.
Compounds to be tested were dissolved in DMSO to a final concentration of 10 mM and diluted just before use in buffer I containing 1 mg/ml bovine serum albumin (IBSA). Recombinant ATase was diluted in IBSA and titrated in order that the reaction be conducted under ATase, and not substrate, limiting conditions. In each assay, fixed amounts of ATase (60-75 fmol) were incubated with varying amounts of 0^6-benzylguanine, or test compound in a total volume of 200 µl of IBSA containing 10 µg of calf thymus DNA at 37°C for 1 hour. The [^3H]-methylated-DNA substrate (100 µl containing 6.7 µg of DNA and 100 fmol of 0^6-methylguanine) was added and incubation continued at 37° for 1 hour, until the reaction was completed. Following acid hydrolysis of the DNA as previously described^21 the [^3H]-methylated protein was recovered and quantitated by liquid scintillation counting. Samples were typically assayed in duplicate and experiments repeated several times. I50 is the concentration of inactivator required to produce a 50% reduction in ATase activity.

Raji cells = assay: Sensitization of Raji cells to BCNU (XTT assay); assay type: cell-based, human; conditions: BCNU, 2 hour pretreatment; for Raji sensitization (D90.^C/D90.^I) 0.5µM: inactivator 0.5µM; for Raji sensitization (D90.^C/D90.^I) 1.0µM: inactivator 1.0µM; for Raji sensitization (D90.^C/D90.^I) O.1µM: inactivator O.1µM
Procedure: Following a 2 hour incubation at 37°C, medium containing either increasing doses of BCNU, temozolomide or equivalent vehicle was added and the cells allowed to grow for 6 days. At this time XTT solution was added and the cells incubated for a further 4 hours at 37°C. The resulting red/orange formazan reaction product was quantified by measuring absorption at 450nm on a microtitre platereader.

A375M cells = assay: Sensitization of A375M cells to BCNU (MTT assay); assay type: cell-based, human; conditions: for A375M sensitization (D50.^C/D50.^I) 1.0uM: inactivator 1.0uM 2 hours before; for A375M sensitization (D50.^C/D50.^I) 0.5uM: inactivator 0.5uM 2 hours before; for A375M sensitization (D50.^C/D50.^I) 5.0uM: inactivator 5.0uM 2 hours before
Procedure: Sensitization of A375M cells to the cytotoxic effects of BCNU was analysed by MTT assay ^24 differing from the XTT assay described above as follows. […] After 6 days MTT solution (4mg/ml) was added and cells incubated for 3 hours at 37°C. Medium was aspirated and the resulting purple formazan crystals were solubilised in DMSO (120μl) and cell viability was quantified by measuring absorption at 540nm using a microtitre plate reader.

ATase [3] = target: T1, ATase; assay: Inactivation of ATase activity in Raji cells; assay type: cell-based; set-up: endogenous in cells; host or cells: Raji; conditions: Raji cells, 2 hours at 37°C; read-out: Raji I50
Procedure: Mammalian cells were cultured under standard conditions. For example, Raji (a human lymphoblastoid cell line from a Burkitt's lymphoma) cells were grown in suspension culture in RPMI medium supplemented with 10% horse serum. A375M cells are human melanoma cells from which the xenografts described below were established following subcutaneous injection into nude mice: WiDr cells are a human colon carcinoma cell line: Hamster+120 cells are a mitozolomide-selected subline of a Chinese hamster lung fibroblast V79 cell line called RJKO: Yoshida cells are a rat carcinosarcoma cell line and YRbus is a busulphan resistant subline thereof: XP cells are an SV40-transformed fibroblast cell line originally from the skin of a Xeroderma pigmentosum patient, pHMGhAT2b cells are a clone of these cells that have been transfected with a mammalian cell expression vector containing the human ATase cDNA and pHMGla cells are a clone that have been transfected with the expression vector only (i.e. one not containing the human ATase cDNA). Cell pellets were resuspended in cold (4°C) buffer I containing 2 µg/ml leupeptin and sonicated for 10 seconds at 12 µ peak to peak distance. After cooling in ice, the cells were sonicated for a further 10 seconds at 18 µ. Immediately after sonication, 0.01 volumes of 8.7 mg/ml phenylmethanesulphonylfluoride in ethanol was added and the sonicates centrifuged at 15 000 g for 10 minutes at 4°C to pellet cell debris. The supernatant was kept for determination of ATase activity (see below).
Cells were diluted to 10^6/ml in culture medium containing either the appropriate concentration of inactivator or an equivalent volume of vehicle (DMSO). Following incubation at 37°C for 2 hours the cells were harvested by centrifugation, washed twice with PBS and the resulting cell pellets (between 1-2 x 10^7 per pellet) stored at -20°C.

[4] = 0.1mM in PBS (pH 7-7.2), read-out: T1/2(h) in PBS (converted)
[5] = 0.1mM in buffer I (1mM EDTA, 50mM Tris pH 8.3), read-out: T1/2(h) in Buffer I (converted)

| Compound | half-life at 100 µM [1, 4] | IC50 (ATase [2]) | IC50 (ATase [3]) | other results |
| --- | --- | --- | --- | --- |
| Nc1nc(OCc2cccnc2)c2[nH]cnc2n1 [B.4211, O^6-(3-picolyl)guanine] | > 16 h | 430 nM | – | – |
| Nc1nc(OCc2ccc3ccccc3c2)c2nc[nH]c2n1 [B.4213, O^6-(2-naphthylmethyl)guanine] | > 16 h | 150 nM | 30 nM | Raji sensitization (D90.^C/D90.^I) 0.5µM (Raji cells): 2.1; Raji sensitization (D90.^C/D90.^I) 1.0µM (Raji cells): 2.9; Raji sensitization (D90.^C/D90.^I) O.1µM (Raji cells): 1.2; A375M sensitization (D50.^C/D50.^I) 1.0uM (A375M cells): 2.0 |
| Nc1nc(OCc2cc3ccccc3s2)c2nc[nH]c2n1 [B.4226, O^6-(2-benzo[b]thienylmethyl)guanine] | 6.7 h | 30 nM | 60 nM | half-life at 100 µM [1, 5]: 9.7 h; Raji sensitization (D90.^C/D90.^I) 0.5µM (Raji cells): 1.6; Raji sensitization (D90.^C/D90.^I) 1.0µM (Raji cells): 10.0; Raji sensitization (D90.^C/D90.^I) O.1µM (Raji cells): 1.6; A375M sensitization (D50.^C/D50.^I) 0.5uM (A375M cells): 3.8; A375M sensitization (D50.^C/D50.^I) 5.0uM (A375M cells): 4.5 |
| Nc1nc(OCc2cnco2)c2nc[nH]c2n1 [B.4274, O^6-(5-oxazolylmethyl)guanine] | – | 340 nM | – | – |
| C=CCOc1nc(N)nc2[nH]cnc12 [O^6-allylguanine, reference compound] | – | 22000 nM | – | half-life at 100 µM [1, 5]: > 64 h; A375M sensitization (D50.^C/D50.^I) 0.5uM (A375M cells): 1.3; A375M sensitization (D50.^C/D50.^I) 5.0uM (A375M cells): 1.9 |
| COC(=O)c1ccc(COc2nc(N)nc3[nH]cnc23)o1 [B.4229, O^6-(5-methoxycarbonylfurfuryl)guanine] | > 16 h | 90 nM | 250 nM | Raji sensitization (D90.^C/D90.^I) 0.5µM (Raji cells): 2.1; Raji sensitization (D90.^C/D90.^I) 1.0µM (Raji cells): 2.5; Raji sensitization (D90.^C/D90.^I) O.1µM (Raji cells): 1.2; A375M sensitization (D50.^C/D50.^I) 1.0uM (A375M cells): 1.8 |
| Nc1nc(OCc2ccc(C(=O)O)o2)c2nc[nH]c2n1 [B.4234, O^6-(5-carboxyfurfuryl)guanine] | > 16 h | 60000 nM | > 1000 nM | Raji sensitization (D90.^C/D90.^I) 0.5µM (Raji cells): 1.0; Raji sensitization (D90.^C/D90.^I) 1.0µM (Raji cells): 1.0; Raji sensitization (D90.^C/D90.^I) O.1µM (Raji cells): 1.0; A375M sensitization (D50.^C/D50.^I) 1.0uM (A375M cells): 0.8 |
| Nc1nc(OCc2cccs2)c2ncn([C@@H]3O[C@H](CO)[C@@H](O)[C@H]3O)c2n1 [B.4279, O^6-thenylguanosine] | – | 900 nM | – | – |
| Nc1nc(OCc2cnc3c(c2)OCO3)c2nc[nH]c2n1 [B.4271, O^6-(5-azapiperonyl)guanine] | > 16 h | 230 nM | – | – |
| Nc1nc(OCc2ccc3c(c2)OCO3)c2nc[nH]c2n1 [B.4212, O^6-piperonylguanine] | 0.72 h | 20 nM | 50 nM | half-life at 100 µM [1, 5]: 1.3 h; Raji sensitization (D90.^C/D90.^I) 1.0µM (Raji cells): 10.7; Raji sensitization (D90.^C/D90.^I) O.1µM (Raji cells): 2.7; A375M sensitization (D50.^C/D50.^I) 0.5uM (A375M cells): 2.3; A375M sensitization (D50.^C/D50.^I) 5.0uM (A375M cells): 2.5; effectiveness in the in vitro ATase inactivation assay compared with BeG (ATase [2]; Figure 1, in words): considerably better |
| Nc1nc(OCc2ccoc2)c2nc[nH]c2n1 [B.4209, O^6-(3-furylmethyl)guanine] | > 16 h | 150 nM | 150 nM | Raji sensitization (D90.^C/D90.^I) 0.5µM (Raji cells): 1.4; Raji sensitization (D90.^C/D90.^I) 1.0µM (Raji cells): 2.8; Raji sensitization (D90.^C/D90.^I) O.1µM (Raji cells): 1.5; A375M sensitization (D50.^C/D50.^I) 1.0uM (A375M cells): 2.5 |
| Nc1nc(OCc2ccc(Br)s2)c2nc[nH]c2n1 [B.4269, O^6-(5-bromothenyl)guanine] | – | 4.5 nM | 6 nM | – |
| CC(Oc1nc(N)nc2[nH]cnc12)c1ccccc1 (racemic) [B.4214, DL-O^6-(α -methylbenzyl)guanine, reference compound] | – | > 60000 nM | – | ability to inactivate recombinant human ATase (ATase [2]): did not inactivate ATase up to the highest concentration used |
| Nc1nc(OCc2ccncc2)c2nc[nH]c2n1 [B.4277, O^6-(4-picolyl)guanine] | – | 130 nM | – | – |
| Nc1nc(OCc2cc3ccccc3s2)c2ncn([C@@H]3O[C@H](CO)[C@@H](O)[C@H]3O)c2n1 [B.4276, O^6-(2-benzo[b]thienylmethyl)guanosine] | – | 350 nM | – | – |
| Nc1nc(OCc2cc3ccccc3o2)c2nc[nH]c2n1 [B.4266, O^6-(2-benzofuranylmethyl)guanine] | > 16 h | 35 nM | – | A375M sensitization (D50.^C/D50.^I) 0.5uM (A375M cells): 6.3; A375M sensitization (D50.^C/D50.^I) 5.0uM (A375M cells): 6.3 |
| N#Cc1ccc(COc2nc(N)nc3[nH]cnc23)o1 [B.4273, O^6-(5-cyanofurfuryl)guanine] | – | 6 nM | – | – |
| Nc1nc(OCc2ccccn2)c2nc[nH]c2n1 [B.4210, O^6-(2-picolyl)guanine] | > 16 h | – | – | A375M sensitization (D50.^C/D50.^I) 1.0uM (A375M cells): 1.5 |
| CC(Oc1nc(N)nc2[nH]cnc12)c1cccs1 (racemic) [B.4217, DL-O^6-(α -methylthenyl)guanine] | – | > 500000 nM | – | ability to inactivate recombinant human ATase (ATase [2]): did not inactivate ATase up to the highest concentration used |
| Nc1nc(OCc2cccc3ccccc23)c2nc[nH]c2n1 [B.4265, O^6-(1-naphthylmethyl)guanine] | – | 95000 nM | – | half-life at 100 µM [1, 5]: 60 h |
| O^6-(2-methoxybenzyl)guanine [B.4231, reference compound] | – | – | – | IC50 (ATase [2]; recombinant human ATase incubated with inactivator 1 hour at 37°C before substrate, read-out: I50): 60000 nM |
| CC(Oc1nc(N)nc2[nH]cnc12)c1ccsc1 (racemic) [B.4219, DL-O^6-[1-(3-thienyl)ethyl]guanine] | 0.12 h | 85000 nM | > 1000 nM | Raji sensitization (D90.^C/D90.^I) 0.5µM (Raji cells): 1.0; Raji sensitization (D90.^C/D90.^I) 1.0µM (Raji cells): 1.0; Raji sensitization (D90.^C/D90.^I) O.1µM (Raji cells): 1.0 |
| Nc1nc(OCc2ccc3c(c2)OCO3)c2ncn([C@@H]3O[C@H](CO)[C@@H](O)[C@H]3O)c2n1 [B.4268, O^6-piperonylguanosine] | 8 h | 750 nM | – | – |
| Cc1ccccc1COc1nc(N)nc2[nH]cnc12 [B.4218, O^6-(2-methylbenzyl)guanine, reference compound] | – | 58000 nM | – | – |
| Nc1nc(OCc2cncs2)c2nc[nH]c2n1 [B.4275, O^6-(5-thiazolylmethyl)guanine] | – | 33 nM | – | – |
| Cn1cc([N+](=O)[O-])cc1COc1nc(N)nc2[nH]cnc12 [B.4278, O^6(1-methyl-4-nitropyrrol-2-ylmethyl) guanine] | – | 550 nM | – | – |
